Measured values reported in ChEMBL document CHEMBL3885861, “Open TG-GATES”.

Species on record: Rattus norvegicus
Assay: Open TG-GATES - Regimen: Daily Repeat
Assay type: toxicity, organism-based, Sprague-Dawley
Parameters: regimen Daily Repeat, gender Male, age 6 weeks
Conditions: in vivo, po, 0 mg/kg, route gavage, dose level Control; for APTT / Bas / Eos / Fbg / Hb / Ht / Lym / MCH / MCHC / MCV / Mono / Neu / PT / Plat / RBC / Ret / WBC: tissue Blood; for KIDNEY_L / KIDNEY_R / KIDNEY_TOTAL: tissue Kidney; for LIVER: tissue Liver; for A/G / ALP / ALT / AST / BUN / CRE / Ca / Cl / DBIL / GLC / IP / K / LDH / Na / PL / RALB / TBIL / TC / TG / TP / gamma-GTP: tissue Plasma

For CCc1oc2ccccc2c1C(=O)c1cc(Br)c(O)c(Br)c1 [BENZBROMARONE], the TERMINAL_BW (72 h, time 3 day) was 230.4 g, the APTT (72 h, time 3 day) was 16.2 s and the Bas (72 h, time 3 day) was 0%. It also gave an Eos (72 h, time 3 day) of 1.6%, a Fbg (72 h, time 3 day) of 232 mg/dL and a Hb (72 h, time 3 day) of 14.5 g/dL. For the same molecule, the Ht (72 h, time 3 day) was 42.7%, the Lym (72 h, time 3 day) was 73% and the MCH (72 h, time 3 day) was 22.5 pg. For the same molecule, the MCHC (72 h, time 3 day) was 34%, the MCV (72 h, time 3 day) was 66.2 fL and the Mono (72 h, time 3 day) was 6.6%. It also gave a Neu (72 h, time 3 day) of 18.6%, a PT (72 h, time 3 day) of 11.7 s and a Plat (72 h, time 3 day) of 111.1 x10_4/uL. The RBC (72 h, time 3 day) was 645.6 x10_4/ul, the Ret (72 h, time 3 day) was 7.2% and the WBC (72 h, time 3 day) was 113.8 x10_2/uL. It also gave a KIDNEY_L (72 h, time 3 day) of 1 g, a KIDNEY_R (72 h, time 3 day) of 1 g and a KIDNEY_TOTAL (72 h, time 3 day) of 2 g. The LIVER (72 h, time 3 day) was 11.1 g, the A/G (72 h, time 3 day) was 2 and the ALP (72 h, time 3 day) was 921.2 IU/L. It also gave an ALT (72 h, time 3 day) of 34.6 IU/L, an AST (72 h, time 3 day) of 62.8 IU/L and a BUN (72 h, time 3 day) of 16.4 mg/dL. For the same molecule, the CRE (72 h, time 3 day) was 0.5 mg/dL, the Ca (72 h, time 3 day) was 9.9 mg/dL and the Cl (72 h, time 3 day) was 106.3 meq/L. For the same molecule, the DBIL (72 h, time 3 day) was 0.008 mg/dL, the GLC (72 h, time 3 day) was 197 mg/dL and the IP (72 h, time 3 day) was 7.5 mg/dL. For the same molecule, the K (72 h, time 3 day) was 5.1 meq/L, the LDH (72 h, time 3 day) was 84.6 IU/L and the Na (72 h, time 3 day) was 139.5 meq/L. For the same molecule, the PL (72 h, time 3 day) was 156.8 mg/dL, the RALB (72 h, time 3 day) was 3.9 g/dL and the TBIL (72 h, time 3 day) was 0.3 mg/dL. For the same molecule, the TC (72 h, time 3 day) was 82 mg/dL, the TG (72 h, time 3 day) was 106 mg/dL and the TP (72 h, time 3 day) was 5.9 g/dL. For the same molecule, the gamma-GTP (72 h, time 3 day) was 0.6 IU/L, the TERMINAL_BW ([…], time 7 day) was 262.9 g and the TERMINAL_BW ([…], time 14 day) was 315 g. The TERMINAL_BW ([…], time 28 day) was 382.2 g, the APTT ([…], time 7 day) was 16.8 s and the Bas ([…], time 7 day) was 0%. For the same molecule, the Eos ([…], time 7 day) was 1%, the Fbg ([…], time 7 day) was 236.4 mg/dL and the Hb ([…], time 7 day) was 14.5 g/dL. For the same molecule, the Ht ([…], time 7 day) was 42.7%, the Lym ([…], time 7 day) was 80% and the MCH ([…], time 7 day) was 21.4 pg. The MCHC ([…], time 7 day) was 33.8%, the MCV ([…], time 7 day) was 63.3 fL and the Mono ([…], time 7 day) was 6.6%. For the same molecule, the Neu ([…], time 7 day) was 12.4%, the PT ([…], time 7 day) was 11.9 s and the Plat ([…], time 7 day) was 113.2 x10_4/uL. It also gave an RBC ([…], time 7 day) of 675 x10_4/ul, a Ret ([…], time 7 day) of 5.5% and a WBC ([…], time 7 day) of 109.7 x10_2/uL. For the same molecule, the APTT ([…], time 14 day) was 16 s, the Bas ([…], time 14 day) was 0% and the Eos ([…], time 14 day) was 1.6%. For the same molecule, the Fbg ([…], time 14 day) was 223.8 mg/dL, the Hb ([…], time 14 day) was 14.7 g/dL and the Ht ([…], time 14 day) was 43.8%. For the same molecule, the Lym ([…], time 14 day) was 77.4%, the MCH ([…], time 14 day) was 20.9 pg and the MCHC ([…], time 14 day) was 33.6%. For the same molecule, the MCV ([…], time 14 day) was 62.3 fL, the Mono ([…], time 14 day) was 4.4% and the Neu ([…], time 14 day) was 16.8%. The PT ([…], time 14 day) was 11.8 s, the Plat ([…], time 14 day) was 110.7 x10_4/uL and the RBC ([…], time 14 day) was 703.4 x10_4/ul. For the same molecule, the Ret ([…], time 14 day) was 4.7%, the WBC ([…], time 14 day) was 138.1 x10_2/uL and the APTT ([…], time 28 day) was 16.6 s. For the same molecule, the Bas ([…], time 28 day) was 0%, the Eos ([…], time 28 day) was 1% and the Fbg ([…], time 28 day) was 230.2 mg/dL. For the same molecule, the Hb ([…], time 28 day) was 15.5 g/dL, the Ht ([…], time 28 day) was 46.5% and the Lym ([…], time 28 day) was 83.8%. For the same molecule, the MCH ([…], time 28 day) was 18.6 pg, the MCHC ([…], time 28 day) was 33.3% and the MCV ([…], time 28 day) was 55.9 fL. It also gave a Mono ([…], time 28 day) of 3.8%, a Neu ([…], time 28 day) of 11.4% and a PT ([…], time 28 day) of 12 s. For the same molecule, the Plat ([…], time 28 day) was 106.6 x10_4/uL, the RBC ([…], time 28 day) was 832 x10_4/ul and the Ret ([…], time 28 day) was 2.6%. The WBC ([…], time 28 day) was 136.5 x10_2/uL, the KIDNEY_L ([…], time 7 day) was 1.1 g and the KIDNEY_R ([…], time 7 day) was 1.2 g. For the same molecule, the KIDNEY_TOTAL ([…], time 7 day) was 2.3 g, the KIDNEY_L ([…], time 14 day) was 1.2 g and the KIDNEY_R ([…], time 14 day) was 1.2 g. It also gave a KIDNEY_TOTAL ([…], time 14 day) of 2.4 g, a KIDNEY_L ([…], time 28 day) of 1.4 g and a KIDNEY_R ([…], time 28 day) of 1.4 g. It also gave a KIDNEY_TOTAL ([…], time 28 day) of 2.9 g, an LIVER ([…], time 7 day) of 12.8 g and an LIVER ([…], time 14 day) of 13.9 g. For the same molecule, the LIVER ([…], time 28 day) was 15.8 g, the A/G ([…], time 7 day) was 1.7 and the ALP ([…], time 7 day) was 777 IU/L. For the same molecule, the ALT ([…], time 7 day) was 31.8 IU/L, the AST ([…], time 7 day) was 60.6 IU/L and the BUN ([…], time 7 day) was 20.4 mg/dL. For the same molecule, the CRE ([…], time 7 day) was 0.5 mg/dL, the Ca ([…], time 7 day) was 10.3 mg/dL and the Cl ([…], time 7 day) was 106.5 meq/L. It also gave a DBIL ([…], time 7 day) of 0.02 mg/dL, a GLC ([…], time 7 day) of 197.2 mg/dL and an IP ([…], time 7 day) of 7.1 mg/dL. For the same molecule, the K ([…], time 7 day) was 5.1 meq/L, the LDH ([…], time 7 day) was 102.2 IU/L and the Na ([…], time 7 day) was 138.3 meq/L. For the same molecule, the PL ([…], time 7 day) was 157.8 mg/dL, the RALB ([…], time 7 day) was 3.9 g/dL and the TBIL ([…], time 7 day) was 0.3 mg/dL. The TC ([…], time 7 day) was 74.4 mg/dL, the TG ([…], time 7 day) was 136.4 mg/dL and the TP ([…], time 7 day) was 6.1 g/dL. It also gave a gamma-GTP ([…], time 7 day) of 1 IU/L, an A/G ([…], time 14 day) of 1.8 and an ALP ([…], time 14 day) of 712.8 IU/L. For the same molecule, the ALT ([…], time 14 day) was 30.6 IU/L, the AST ([…], time 14 day) was 62.6 IU/L and the BUN ([…], time 14 day) was 18.2 mg/dL. The CRE ([…], time 14 day) was 0.5 mg/dL, the Ca ([…], time 14 day) was 10.2 mg/dL and the Cl ([…], time 14 day) was 108.1 meq/L. The DBIL ([…], time 14 day) was 0.008 mg/dL, the GLC ([…], time 14 day) was 187.6 mg/dL and the IP ([…], time 14 day) was 6.5 mg/dL. The K ([…], time 14 day) was 4.9 meq/L, the LDH ([…], time 14 day) was 85.6 IU/L and the Na ([…], time 14 day) was 140.1 meq/L. It also gave a PL ([…], time 14 day) of 158.6 mg/dL, an RALB ([…], time 14 day) of 3.9 g/dL and a TBIL ([…], time 14 day) of 0.3 mg/dL. For the same molecule, the TC ([…], time 14 day) was 78.6 mg/dL, the TG ([…], time 14 day) was 139.8 mg/dL and the TP ([…], time 14 day) was 6.1 g/dL. It also gave a gamma-GTP ([…], time 14 day) of 1.2 IU/L, an A/G ([…], time 28 day) of 1.6 and an ALP ([…], time 28 day) of 607.6 IU/L. The ALT ([…], time 28 day) was 28.2 IU/L, the AST ([…], time 28 day) was 58 IU/L and the BUN ([…], time 28 day) was 19.6 mg/dL. It also gave a CRE ([…], time 28 day) of 0.6 mg/dL, a Ca ([…], time 28 day) of 9.7 mg/dL and a Cl ([…], time 28 day) of 106.7 meq/L. It also gave a DBIL ([…], time 28 day) of 0.006 mg/dL, a GLC ([…], time 28 day) of 182 mg/dL and an IP ([…], time 28 day) of 6.5 mg/dL. The K ([…], time 28 day) was 4.5 meq/L, the LDH ([…], time 28 day) was 89.8 IU/L and the Na ([…], time 28 day) was 139.4 meq/L. The PL ([…], time 28 day) was 146.4 mg/dL, the RALB ([…], time 28 day) was 4 g/dL and the TBIL ([…], time 28 day) was 0.3 mg/dL. The TC ([…], time 28 day) was 70.4 mg/dL, the TG ([…], time 28 day) was 146.8 mg/dL and the TP ([…], time 28 day) was 6.4 g/dL. It also gave a gamma-GTP ([…], time 28 day) of 1.4 IU/L.
